Test results published in US20240174671A1, “New 2,3-Dihydro-1H-pyrrolo[3,2-b]pyridine Derivatives as Sigma Ligands” (ACONDICIONAMIENTO TARRASENSE, priority 2021, published 2024).
Read-outs that look alike come from different tables or passages of the source.

Tests used:
human σ2/TMEM97 receptor = biological target: T1, human σ2/TMEM97 receptor (Homo sapiens, UniProt Q5BJF2); assay: Binding assay to human σ2/TMEM97 receptor ([3H]-DTG); conditions: transfected HEK-293 membranes, 10 nM [3H]-DTG, 25° C., 120 minutes; read-out: Binding σ-[…] (binding to σ2-receptor expressed as Ki)
T1 construct: expressed in transfected cells; host or cells: HEK-293
T1 sequence (Q5BJF2 whole entry): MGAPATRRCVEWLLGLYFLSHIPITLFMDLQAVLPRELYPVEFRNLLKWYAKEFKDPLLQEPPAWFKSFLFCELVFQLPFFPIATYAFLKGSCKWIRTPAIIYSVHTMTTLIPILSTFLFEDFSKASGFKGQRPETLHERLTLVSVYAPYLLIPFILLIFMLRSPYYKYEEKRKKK
Outline: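 Membranes from transfected HEK-293 cells incubated with 10 nM [3H]-DTG in 50 mM Tris-HCl pH 8.0, 120 min at 25 °C; non-specific binding defined with 10 μM haloperidol. Bound radioactivity counted after filtration; compounds tested as % inhibition at 1 or 10 μM or at five concentrations for Ki.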

human σ1 receptor = biological target: T2, human σ1 receptor (Homo sapiens, UniProt Q99720); assay: Human σ1 receptor radioligand assay ([3H](+)-pentazocine); type: binding
T2 construct: expressed in transfected cells; host or cells: HEK-293
T2 sequence (Q99720 whole entry): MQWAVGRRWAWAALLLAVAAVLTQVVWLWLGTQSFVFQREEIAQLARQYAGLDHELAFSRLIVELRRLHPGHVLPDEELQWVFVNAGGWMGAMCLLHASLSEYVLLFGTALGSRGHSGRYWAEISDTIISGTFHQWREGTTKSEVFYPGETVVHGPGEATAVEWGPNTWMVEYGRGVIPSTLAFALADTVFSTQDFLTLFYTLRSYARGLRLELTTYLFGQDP
Outline: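 Binding used [3H](+)-pentazocine, 120 min at 37° C, with non-specific binding defined by 10 μM haloperidol. Bound radioligand was collected by filtration, washed with ice-cold 10 mM Tris-HCl pH 7.4 and counted by scintillation.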

[1] = transfected HEK-293 membranes, 5 nM [3H](+)-pentazocine, 37° C., 120 minutes, read-out: Binding σ-[…] (binding to σ1-receptor expressed as Ki)

| SMILES | Ki (human σ2/TMEM97 receptor) [nM] | Ki (human σ1 receptor; [1]) [nM] | Ki (human σ1 receptor) [nM] |
| --- | --- | --- | --- |
| Cc1ccc2c(n1)C(C)(C)CN2C(=O)N1CC[C@@H](N(C)Cc2ccccc2)C1 [Example 43, (R)-(3-(benzyl(methyl)amino)pyrrolidin-1-yl)(3,3,5-trimethyl-2,3-dihydro-1H-pyrrolo[3,2-b]pyridin-1-yl)methanone] | > 1000 | 500 to 1000 | – |
| Cc1ccc2c(n1)C(C)(C)CN2C(=O)N1CCC(N(C)Cc2ccc(F)c(C#N)c2)CC1 [Example 60, 2-fluoro-5-((methyl(1-(3,3,5-trimethyl-2,3-dihydro-1H-pyrrolo[3,2-b]pyridine-1-carbonyl)piperidin-4-yl)amino)methyl)benzonitrile] | < 100 | 100 to 500 | – |
| Cc1ccc2c(n1)C(C)(C)CN2C(=O)N1CCC(N(C)Cc2ccncc2)CC1 [Example 75, (4-(methyl(pyridin-4-ylmethyl)amino)piperidin-1-yl)(3,3,5-trimethyl-2,3-dihydro-1H-pyrrolo[3,2-b]pyridin-1-yl)methanone] | 500 to 1000 | > 1000 | – |
| CC(C)CCN(C)[C@H]1CCCN(C(=O)N2CCc3ncccc32)C1 [Example 64, (S)-(2,3-dihydro-1H-pyrrolo[3,2-b]pyridin-1-yl)(3-(isopentyl(methy)amino)piperidin-1-yl)methanone] | < 100 | < 100 | – |
| CC1(C)CN(C(=O)N2CCC3(CCN(Cc4ccc(C#N)cc4)CC3)C2)c2cccnc21 [Example 151, 4-((2-(3,3-dimethyl-2,3-dihydro-1H-pyrrolo[3,2-b]pyridine-1-carbonyl)-2,8-diazaspiro[4.5]decan-8-yl)methyl)benzonitrile] | < 100 | < 100 | – |
| Cc1ccc2c(n1)C(C)(C)CN2C(=O)N1C[C@H]2CN(Cc3ccccc3)C[C@H]2C1 [Example 36, ((3aR,6aS)-5-benzylhexahydropyrrolo[3,4-c]pyrrol-2(1H)-yl)(3,3,5-trimethyl-2,3-dihydro-1H-pyrrolo[3,2-b]pyridin-1-yl)methanone] | 500 to 1000 | 100 to 500 | – |
| Cc1ccc2c(n1)C(C)(C)CN2C(=O)N1CCC(N(C)Cc2ccccn2)CC1 [Example 73, (4-(methyl(pyridin-2-ylmethyl)amino)piperidin-1-yl)(3,3,5-trimethyl-2,3-dihydro-1H-pyrrolo[3,2-b]pyridin-1-yl)methanone] | 500 to 1000 | > 1000 | – |
| CN(Cc1ccccc1)[C@H]1CC[C@H](N(C)C(=O)N2CC(C)(C)c3ncccc32)CC1 [Example 78, N-((1r,4r)-4-(benzyl(methyl)amino)cyclohexyl)-N,3,3-trimethyl-2,3-dihydro-1H-pyrrolo[3,2-b]pyridine-1-carboxamide] | < 100 | 500 to 1000 | – |
| Cc1ccc2c(n1)C(C)(C)CN2C(=O)N1CCC(N(C)Cc2ccc(C#N)cc2)CC1 [Example 117, 4-((methyl(1-(3,3,5-trimethyl-2,3-dihydro-1H-pyrrolo[3,2-t]pyridine-1-carbonyl)piperidin-4-yl)amino)methyl)benzonitrile] | < 100 | 100 to 500 | – |
| Cc1ccc2c(n1)C(C)(C)CN2C(=O)[C@H]1CC[C@H](N(C)Cc2ccccc2F)CC1 [Example 183, ((1r,4r)-4-((2-fluorobenzyl)(methyl)amino)cyclohexyl)(3,3,5-trimethyl-2,3-dihydro-1H-pyrrolo[3,2-b]pyridin-1-yl)methanone] | < 100 | – | < 100 |
| Cc1ccc2c(n1)C(C)(C)CN2C(=O)NC1CCN(CC2CCOCC2)CC1 [Example 42, 3,3,5-trimethyl-N-(1-((tetrahydro-2H-pyran-4-yl)methyl)piperidin-4-yl)-2,3-dihydro-1H-pyrrolo[3,2-b]pyridine-1-carboxamide] | > 1000 | 100 to 500 | – |
| CN(Cc1ccccc1)C1CCN(C(=O)N2CC(C)(C)c3nc(C#N)ccc32)CC1 [Example 40, 1-(4-(benzyl(methyl)amino)piperidine-1-carbonyl)-3,3-dimethyl-2,3-dihydro-1H-pyrrolo[3,2-b]pyridine-5-carbonitrile] | < 100 | < 100 | – |
| Cc1ccc2c(n1)C(C)(C)CN2C(=O)N1CCC2(CCN(CCC3CCOCC3)CC2)C1 [Example 108, (8-(2-(tetrahydro-2H-pyran-4-yl)ethyl)-2,8-diazaspiro[4.5]decan-2-yl)(3,3,5-trimethyl-2,3-dihydro-1H-pyrrolo[3,2-t]pyridin-1-yl)methanone] | < 100 | > 1000 | – |
| CN(Cc1cccc(C#N)c1)C1CCN(C(=O)N2CC(C)(C)c3ncccc32)CC1 [Example 83, 3-(((1-(3,3-dimethyl-2,3-dihydro-1H-pyrrolo[3,2-b]pyridine-1-carbonyl)piperidin-4-yl)(methyl)amino)methyl)benzonitrile] | 100 to 500 | > 1000 | – |
| CN(CCc1ccccc1)C1CCN(C(=O)N2CC(C)(C)c3ncccc32)CC1 [Example 52, (3,3-dimethyl-2,3-dihydro-1H-pyrrolo[3,2-b]pyridin-1-yl)(4-(methyl(phenethyl)amino)piperidin-1-yl)methanone] | < 100 | 100 to 500 | – |
| Cc1ccc2c(n1)C(C)(C)CN2C(=O)N1CCC2(CCN(Cc3cccc(S(C)(=O)=O)c3)CC2)C1 [Example 102, (8-(3-(methylsulfonyl)benzyl)-2,8-diazaspiro[4.5]decan-2-yl)(3,3,5-trimethyl-2,3-dihydro-1H-pyrrolo[3,2-b]pyridin-1-yl)methanone] | < 100 | > 1000 | – |
| Cc1ccc2c(n1)C(C)(C)CN2C(=O)[C@H]1CC[C@H](N(C)Cc2ccc(C#N)c(F)c2)CC1 [Example 180, 2-fluoro-4-((methyl((1r,4r)-4-(3,3,5-trimethyl-2,3-dihydro-1H-pyrrolo[3,2-b]pyridine-1-carbonyl)cyclohexyl)amino)methyl)benzonitrile] | < 100 | < 100 | – |
| CCN(CC)C(CNC(=O)N1CC(C)(C)c2nc(C)ccc21)c1ccccc1 (stereo not shown) [Example 9, N-(2-(diethylamino)-2-phenylethyl)-3,3,5-trimethyl-2,3-dihydro-1H-pyrrolo[3,2-b]pyridine-1-carboxamide] | > 1000 | < 100 | – |
| Cc1ccc2c(n1)C(C)(C)CN2C(=O)NC1CCN(Cc2cccc(Cl)c2)CC1 [Example 55, N-(1-(3-chlorobenzyl)piperidin-4-yl)-3,3,5-trimethyl-2,3-dihydro-1H-pyrrolo[3,2-b]pyridine-1-carboxamide] | 100 to 500 | < 100 | – |
| Cc1ccc2c(n1)C(C)(C)CN2C(=O)[C@@H]1CN(Cc2ccccc2)C[C@H]1C [Example 124, ((3S,4S)-1-benzyl-4-methylpyrrolidin-3-yl)(3,3,5-trimethyl-2,3-dihydro-1H-pyrrolo[3,2-b]pyridin-1-yl)methanone] | > 1000 | < 100 | – |
| Cc1ccc2c(n1)C(C)(C)CN2C(=O)N1CCN(Cc2ccccc2)CC1 [Example 10, (4-benzylpiperazin-1-yl)(3,3,5-trimethyl-2,3-dihydro-1H-pyrrolo[3,2-b]pyridin-1-yl)methanone] | > 1000 | 100 to 500 | – |
| Cc1ccc2c(n1)C(C)(C)CN2C(=O)C1CN(Cc2cccc(F)c2)C1 [Example 135, (1-(3-fluorobenzyl)azetidin-3-yl)(3,3,5-trimethyl-2,3-dihydro-1H-pyrrolo[3,2-b]pyridin-1-yl)methanone] | 500 to 1000 | < 100 | – |
| Cc1ccc2c(n1)C(C)(C)CN2C(=O)NC1CCN(Cc2ccc(F)cc2)CC1 [Example 22, N-(1-(4-fluorobenzyl)piperidin-4-yl)-3,3,5-trimethyl-2,3-dihydro-1H-pyrrolo[3,2-b]pyridine-1-carboxamide] | 500 to 1000 | < 100 | – |
| CC1(C)CN(C(=O)N2CCC3(CCN(Cc4ccccc4F)CC3)CC2)c2cccnc21 [Example 145, (3,3-dimethyl-2,3-dihydro-1H-pyrrolo[3,2-b]pyridin-1-yl)(9-(2-fluorobenzyl)-3,9-diazaspiro[5.5]undecan-3-yl)methanone] | < 100 | < 100 | – |
| COc1cccc(CN2CCC3(CC2)CCN(C(=O)N2CC(C)(C)c4nc(C)ccc42)C3)c1 [Example 95, (8-(3-methoxybenzyl)-2,8-diazaspiro[4.5]decan-2-yl)(3,3,5-trimethyl-2,3-dihydro-1H-pyrrolo[3,2-b]pyridin-1-yl)methanone] | < 100 | > 1000 | – |
| Cc1ccc2c(n1)C(C)(C)CN2C(=O)[C@H]1CC[C@H](N(C)Cc2ncccc2F)CC1 [Example 178, ((1r,4r)-4-(((3-fluoropyridin-2-yl)methyl)(methyl)amino)cyclohexyl)(3,3,5-trimethyl-2,3-dihydro-1H-pyrrolo[3,2-b]pyridin-1-yl)methanone] | 100 to 500 | < 100 | – |
| Cc1ccc2c(n1)C(C)(C)CN2C(=O)NC[C@@H](c1cccc(F)c1)N(C)C [Example 34, (R)—N-(2-(dimethylamino)-2-(3-fluorophenyl)ethyl)-3,3,5-trimethyl-2,3-dihydro-1H-pyrrolo[3,2-b]pyridine-1-carboxamide] | > 1000 | 100 to 500 | – |
| Cc1ccc2c(n1)C(C)(C)CN2C(=O)N1CCC(N(C)Cc2ccc(F)cc2)CC1 [Example 114, (4-((4-fluorobenzyl)(methyl)amino)piperidin-1-yl)(3,3,5-trimethyl-2,3-dihydro-1H-pyrrolo[3,2-b]pyridin-1-yl)methanone] | < 100 | 100 to 500 | – |
| Cc1ccc2c(n1)C(C)(C)CN2C(=O)NCC(c1ccccc1)N(C)C (stereo not shown) [Example 2, N-(2-(dimethylamino)-2-phenylethyl)-3,3,5-trimethyl-2,3-dihydro-1H-pyrrolo[3,2-b]pyridine-1-carboxamide] | > 1000 | – | < 100 |
